Assays:
[1] = tested on: experimental cardiac ischaemia model; conditions: dogs; cited from earlier work
infarction patients [2] = conditions: two deaths also in the placebo group; cited from earlier work
[3] = tested on: patients presenting infarction symptoms; conditions: 2 g/day; 6 in the control group; cited from earlier work
[4] = tested on: patients with signs of infarction; conditions: 40 mg/kg/day (2.8 g/day), cited from earlier work
[5] = tested on: patients with acute myocardial infarction; conditions: 3 grams every 8 hours (9 grams a day) intravenously for 48 hours; control saline solution; cited from earlier work
[6] = tested on: patients with acute myocardial infarction; assay: Multicentre randomized, double-blind, placebo-controlled, parallel-group clinical trial of L-carnitine; assay type: in vivo, human; conditions: for RR (Relative Risk) of death at 1 mo. / RR (Relative Risk) of death at 2 mos. / RR (Relative Risk) of death at 6 mos. / RR (Relative Risk) of death at 12 mos. / RR (Relative Risk) of death at 3 days / RR (Relative Risk) of death at 5 days / RR (Relative Risk) of death at 7 days: vs placebo
Protocol: A clinical trial was conducted aimed at evaluating the effect of the administration of L-carnitine on short-, medium- and long-term incidence and mortality in patients with acute myocardial infarction. The trial design was that of a multicentre randomized, double-blind, placebo-controlled, parallel-group trial.
A total of 2,296 patients of male and female sex were recruited, aged below 80 years, subdivided into groups. The study compound, L-carnitine, was administered at a dose of 9 g/day i.v. for the first 5 days and 4 g/day by mouth from day 6 to day 180.
In particular, in one group of patients the L-carnitine was administered intravenously dissolved in sterile saline solution, while in another group of patients it was administered dissolved in normal 5% glucose solution used in hospital departments.
The control group received the standard therapy used for the treatment of infarct, without L-carnitine.
Concomitant therapies were administered according to the procedures adopted in local clinical practice.
The efficacy parameters evaluated were reduction of mortality, reduction of the number of days spent in intensive care, and reduction of the number of episodes of post-infarction heart failure.
• Typical chest pain lasting >30 minutes which is not relieved by oral or i.v. administration of nitrates; • ECG with ST-segment elevation 0.2 mV in D, and in lead aVL and/or in at least two contiguous precordial leads; • Time interval elapsing between onset of symptoms and study randomisation <12 hours; • Age <80 years; • Written informed consent. Exclusion Criteria • Pregnancy or breast-feeding; • Haemodynamically significant valvulopathy; • Hypertrophic or dilatory cardiomyopathy; • Congenital cardiopathy; • Clinically severe liver and kidney disease; • Alcohol abuse; • Other diseases associated with a poor life expectancy; • Conditions making poor compliance with treatment and/or periodic examinations likely; • Inclusion in another trial.

infarction patients [7] = conditions: L-carnitine administered within 24 hours of the infarction; 14 in the control group; cited from earlier work
[8] = all patients, L-carnitine in saline or glucose solution
[9] = group treated with L-carnitine dissolved in glucose solution
[10] = L-carnitine dissolved in glucose solution
[11] = all patients, saline or glucose solution

## C[N+](C)(C)C[C@H](O)CC(=O)[O-] [L-carnitine]
[1]
  enhancing cardiac lipid metabolism: active
Infarction patients [2]
  deaths in the group treated with L-carnitine: two
[3]
  number of deaths at 28 days after the start of treatment: 4
[4]
  difference between patients treated within 4 hours of onset of symptoms of infarction and patients treated 4 hours after onset: no statistically significant difference
[4]; one in the control group
  number of deaths in the treated group: none
[5]
  mortality at 7 days after the start of treatment, control group vs treated group: no significant difference
[6]; [8]
  NUMBER OF DEATHS AT: 1 mo.: 45
  NUMBER OF DEATHS AT: 2 mos.: 53
  NUMBER OF DEATHS AT: 6 mos.: 64
  NUMBER OF DEATHS AT: 12 mos.: 67
  NUMBER OF DEATHS AT: 5 days: 27
  NUMBER OF DEATHS AT: 7 days: 31
[6]; [9]
  NUMBER OF DEATHS AT: 1 mo.: 22
  NUMBER OF DEATHS AT: 2 mos.: 26
  NUMBER OF DEATHS AT: 6 mos.: 32
  NUMBER OF DEATHS AT: 12 mos.: 33
  NUMBER OF DEATHS AT: 3 days: 11
  NUMBER OF DEATHS AT: 5 days: 13
  NUMBER OF DEATHS AT: 7 days: 15
[6]; [10]
  RR (Relative Risk) of death at 1 mo.: 0.79
  RR (Relative Risk) of death at 2 mos.: 0.80
  RR (Relative Risk) of death at 6 mos.: 0.87
  RR (Relative Risk) of death at 12 mos.: 0.88
  RR (Relative Risk) of death at 3 days: 0.67
  RR (Relative Risk) of death at 5 days: 0.64
  RR (Relative Risk) of death at 7 days: 0.70
[6]; [11]
  RR (Relative Risk) of death at 1 mo.: 0.78
  RR (Relative Risk) of death at 2 mos.: 0.81
  RR (Relative Risk) of death at 6 mos.: 0.86
  RR (Relative Risk) of death at 12 mos.: 0.89
  RR (Relative Risk) of death at 3 days: 0.68
  RR (Relative Risk) of death at 5 days: 0.63
  RR (Relative Risk) of death at 7 days: 0.69
[6]; all patients, L-carnitine in saline or glucose solution, 9 g/day i.v. 5 days then 4 g/day oral
  NUMBER OF DEATHS AT: 3 days: 23
Infarction patients [7]
  patients in the treated group who died over the entire hospitalisation period: 11

Reference: US8394854B2, “Use of L-carnitine for the treatment of cardiovascular diseases” (Sigma-Tau Industrie Farmaceutiche Riunite S.p.A., priority 2004, dated 2013)
